Experimental data from patent publication US9593305B2, “Differentiation of pluripotent stem cells” (Janssen Biotech, Inc., priority 2008, dated 2017).

Tested on: H1 human embryonic stem cells
Experiment: Primary screening: definitive endoderm differentiation in the absence of activin A, cell number and SOX17 (Example 3)
Assay type: cell-based
Settings: for Cell Number, % of positive control / Sox17 Intensity % of positive control: Table 2 hit subset of primary screening, no activin A; for Cell Number, % of positive control / Sox17 Intensity % of positive control / SOX17 expression in the absence of activin A: 2.5 μM; for SOX17 expression in the absence of activin A: primary screening; for Cell Number: % of positive control / Sox17 Expression: % of positive control / Sox17 Expression: Average Total Intensity / Cell Number: Average Total Cell Number: 2.5 μM compound, 20 ng/ml Wnt3a days 1-2, no activin A, four-day assay; for Cell Number: Average Total Cell Number: positive control 100 ng/ml activin A + Wnt3a
Protocol: Briefly, clusters of H1 human embryonic stem cells were grown on reduced growth factor […]™ (Invitrogen; Cat #1356231)-coated tissue culture plastic. Cells were passaged using collagenase (Invitrogen; Cat #17104-019) treatment and gentle scraping, washed to remove residual enzyme, and plated with even dispersal at a ratio of 1:1 (surface area) on reduced growth factor […]™-coated 96-well black plates (Packard ViewPlates; PerkinElmer; Cat #6005182) using volumes of 100 μl/well. Cells were allowed to attach as clusters and then recover log phase growth over a 1 to 3 day period, feeding daily with MEF conditioned medium supplemented with 8 ng/ml bFGF (R&D Systems; Cat #233-FB). Plates were maintained at 37° C., 5% CO2 in a humidified box throughout the duration of assay.
The compounds tested were made available as 5 mM stocks in 96-well plate format, solubilized in 100% DMSO (Sigma; Cat #D2650) and stored at −80° C. The library compounds were further diluted to an intermediate concentration of 0.2 mM in 50 mM HEPES (Invitrogen; Cat #15630-080), 20% DMSO and stored at 4° C. Test conditions were performed in triplicate, feeding on alternate days over a four-day assay period. Primary screening assays were initiated by aspirating culture medium from each well followed by three washes in PBS (Invitrogen; Cat #14190) to remove residual growth factors and serum. On the first day of assay, test volumes of 200 μl per well were added back containing DMEM:F12 base medium (Invitrogen; Cat #11330-032) supplemented with 0.5% FCS (HyClone; Cat #SH30070.03) and 20 ng/ml Wnt3a (R&D Systems; Cat #1324-WN) plus 2.5 μM test compound. On the third day of assay, test volumes of 200 μl per well were added back containing DMEM:F12 base medium supplemented with 2% FCS plus 2.5 μM test compound, without Wnt3a. Positive control samples contained the same base medium supplemented with FCS, substituting 100 ng/ml recombinant human activin A (PeproTech; Cat #120-14) for the test compound throughout the four-day assay along with Wnt3a (20 ng/ml) added only on days 1 and 2. Negative control samples contained DMEM:F12 base medium supplemented with FCS, adding Wnt3a on days 1 and 2 but omitting activin A.
At the conclusion of four-days of culture, assay plates were washed twice with PBS (Invitrogen; Cat #14190), fixed with 4% paraformaldehyde (Alexis Biochemical; Cat #ALX-350-011) at room temperature for 20 minutes, then washed three times with PBS and permeabilized with 0.5% Triton X-100 (Sigma; Cat #T8760-2) for 20 minutes at room temperature. Cells were washed again three times with PBS and blocked with 4% chicken serum (Invitrogen; Cat #16110082) in PBS for 30 minutes at room temperature. Primary antibody (goat anti-human SOX17; R&D Systems; Cat #AF1924) was diluted 1:100 in 4% chicken serum and added to each well for one hour at room temperature. Alexa Fluor 488 conjugated secondary antibody (chicken anti-goat IgG; Molecular Probes; Cat #AZ1467) was diluted 1:200 in PBS and added to each sample well after washing three times with PBS. To counter stain nuclei, 4 μg/ml Hoechst 33342 (Invitrogen; Cat #H3570) was added for ten minutes at room temperature. Plates were washed once with PBS and left in 100 μl/well PBS for imaging.
Imaging was performed using an IN Cell Analyzer 1000 (GE Healthcare) utilizing the 51008bs dichroic for cells stained with Hoechst 33342 and Alexa Fluor 488. Exposure times were optimized from positive control wells and from untreated negative control wells stained with secondary antibody alone. Images from 15 fields per well were acquired to compensate for any cell loss during the bioassay and subsequent staining procedures. Measurements for total cell number and total SOX17 intensity were obtained from each well using IN Cell Developer Toolbox 1.7 (GE Healthcare) software. Segmentation for the nuclei was determined based on gray-scale levels (baseline range 100-300) and nuclear size. […]

Structure (SMILES)	Cell Number, % of positive control	Sox17 Intensity % of positive control	SOX17 expression in the absence of activin A	Cell Number: % of positive control	Sox17 Expression: % of positive control	Sox17 Expression: Average Total Intensity	Cell Number: Average Total Cell Number
CCN1CC(=O)NCCCc2cncc(c2)-c2ncnc(n2)Nc2cc(Cl)cc(c2)C1 [Compound 35, 10-Chloro-14-ethyl-3,5,7,14,17,23,27-heptaazatetracyclo[19.3.1.1˜2,6˜0.1˜8,12]Theptacosa-1(25), 2(27), 3,5,8(26), 9,11,21,23-nonaen-16-one]	158.7 % of positive control	86.8 % of positive control	SOX17 expression was induced				
CN1CCC(=O)NCCCNc2cccc(c2)-c2ncnc(n2)Nc2cccc(c2)C1 [Compound 21, 14-Methyl-3,5,7,14,18,22,29-heptaazatetracyclo[21.3.1.1˜2,6˜0.1˜8,12˜]nonacosa-1(27), 2(29), 3,5,8(28), 9,11,23,25-nonaen-17-one]				44.44 % of positive control	−0.61 % of positive control	−1.96E+06	4719
O=C1NCCCc2cncc(c2)-c2ncnc(n2)Nc2cccc(c2)CN2CCCC1C2 (stereo not shown) [Compound 17, 3,5,7,14,20,26,31-Heptaazapentacyclo[22.3.1.1-2,6˜1˜8,12˜1˜14,18˜]hentriaconta-1(28), 2(31), 3,5,8(30), 9,11,24,26-nonaen-19-one]	133.8 % of positive control	−0.7 % of positive control					
O=C1NCCCc2cncc(c2)-c2ncnc(n2)Nc2cccc(c2)CN2CCC1CC2 [Compound 22, 1,8,10,12,16,22,30-Heptaazapentacyclo[22.2.2.1-3,7˜0.1˜9,13˜1-14,18˜]hentriaconta-3(31), 4,6,9(30), 10,12,14(29), 15,17-nonaen-23-one]	132.7 % of positive control	72.4 % of positive control	SOX17 expression was induced				
CN1CCC(=O)NCCCNc2ncccc2-c2ncnc(n2)Nc2cccc(c2)C1 [Compound 39, 9-Methyl-2,3,4,5,7,8,9,10-octahydro-16H-17,21-(azeno)-11,15-(metheno)pyrido[3,2-g][1,3,5,9,13,17]hexaazacyclotricosin-6(1H)-one]	147.0 % of positive control	35.2 % of positive control					
O=C1NCCCc2cncc(c2)-c2ncnc(n2)Nc2cc(Cl)cc(c2)CN2CCCC1C2 (stereo not shown) [Compound 37, 10-Chloro-3,5,7,14,20,26,31-heptaazapentacyclo[22.3.1.1˜2,6˜0.1˜8,12˜0.1˜14,18˜]hentriaconta-1(28), 2(31), 3,5,8(30), 9,11,24,26-nonaen-19-one]	129.3 % of positive control	29.1 % of positive control					
O=C1CCN2CCN(CC2)Cc2cccc(c2)Nc2ncnc(n2)-c2cncc(c2)CCCN1 [Compound 23, 1,8,10,12,16,22,26,32-Octaazapentacyclo[24.2.2.1-3,7˜0.1˜9,13˜0.1˜14,18˜]tritriaconta-3(33), 4,6,9(32), 10,12,14(31), 15,17-nonaen-23-one]				24.13 % of positive control	−0.48 % of positive control	−1.56E+06	2563
O=C1CCN2CCN(CC2)Cc2cc(Cl)cc(c2)Nc2ncnc(n2)-c2cncc(c2)CCCN1 [Compound 34, 5-Chloro-1,8,10,12,16,22,26,32-octaazapentacyclo[24.2.2.1˜3.7˜0.1˜9,13˜0.1˜14.18˜]tritriaconta-3(33), 4,6,9(32), 10,12,14(31), 15,17-nonaen-23-one]	114.8 % of positive control	44.5 % of positive control					
CCN1CCCc2cccc(c2)-c2ncnc(n2)Nc2cccc(c2)CCNC(=O)C1 [Compound 29, 18-Ethyl-3,5,7,15,18,28-hexaazatetracyclo[20.3.1.1˜2,6˜0.1˜8,12˜]octacosa-1(26), 2(28), 3,5,8(27), 9,11,22,24-nonaen-16-one]	136.0 % of positive control	34.5 % of positive control					
CCN1CC(=O)NCCCc2cc(ccc2F)-c2ncnc(n2)Nc2cc(Cl)cc(c2)C1 [Compound 25, 10-Chloro-14-ethyl-22-fluoro-3,5,7,14,17,27-hexaazatetracyclo[19.3.1.1˜2,6˜0.1˜8,12˜]heptacosa-1(25), 2(27), 3,5,8(26), 9,11,21,23-nonaen-16-one]				146.17 % of positive control	20.32 % of positive control	4.03E+07	4151
